From patent US20210268129A1, “Theranostic Radiophotodynamic Therapy Nanoparticles” (priority 2018, published 2021)

Columns and labels:
[1] = system: normal skin fibroblast cell line GM38
Experimental: (§1) To confirm, baseline toxicity experiments were conducted with the fully assembled nanoparticles and its constituents. […] MTT assays detected changes in cell proliferation and viability.

[2] = system: prostate cancer cell line DU145
Experimental: as §1

[3] = system: prostate cancer cell line PC3
Experimental: as §1

Measured: baseline cytotoxicity over increasing doses

C=CC1=C(C)c2cc3[nH]c(cc4nc(cc5[nH]c(cc1n2)c(C)c5CCC(=O)O)C(CCC(=O)O)=C4C)c(C)c3C=C [PPIX, protoporphyrin IX]
No appreciable differences: all assays above
